From patent US12351556B2, “Pyridin-2(1H)one derivatives, their preparation and their use for the treatment of pain” (INSTITUT NATIONAL DE LA SANTE ET DE LA RECHERCHE MEDICALE …, priority 2019, dated 2025)
Entries after “also recorded” stand apart in the source; their conditions may differ. Like-named read-outs stand apart in the source and are kept apart here.

Key:
ERK2 = ERK2 (Homo sapiens (Human), UniProt P28482); experiment: ICKP protein kinase panel screening; assay type: biochemical; conditions: duplicate assays, read-out: mean % residual activity
Procedure: (§1) FIG. 4 illustrates the studies carried out for compounds 67 and 69. Compounds 67 and 69 (FIG. 4B) were evaluated at the International Center For Kinase Profiling (ICKP, Dundee, Scotland) toward a panel of 13 protein kinases. The results (FIG. 4A) were expressed as the mean percentage of residual activity at 1 μM concentration (duplicate assays). Small disks: ≥90%, larger disk: 59%, for both compounds. The tree was generated using the Kinome Render software, and the illustration reproduced courtesy of Cell Signaling Technology, Inc. (www.cellsignal.com) Chartier et al PeerJ 2013, 1:e126.
(§2) Results are expressed as the mean percentage of residual activity at 10 μM (Table 3) or 1 μM (Table 4). They are illustrated on FIGS. 3 and 4.
(§3) The selectivity of compound 69 was evaluated at 1 μM toward another panel containing all four p38 MAPK isoforms, ERK1, ERK2 as well as other protein kinases close to p38α MAPK in the kinome phylogenetic tree (FIG. 4, Table 4). […] Its IC50 toward p38α MAPK was determined, showing a value in the micromolar range (IC50=3.0±0.1 μM).

CDK2-Cyclin A = CDK2-Cyclin A (Homo sapiens (Human), UniProt P24941); experiment: ICKP protein kinase panel screening; assay type: biochemical; conditions: duplicate assays, read-out: mean % residual activity
Procedure: as §1, §2, §3

ERK8 = ERK8 (Homo sapiens (Human), UniProt Q8TD08); experiment: ICKP protein kinase panel screening; assay type: biochemical; conditions: duplicate assays, read-out: mean % residual activity
Procedure: as §1, §2, §3

p38b MAPK = p38b MAPK (Homo sapiens (Human), UniProt Q15759); experiment: ICKP protein kinase panel screening; assay type: biochemical; conditions: duplicate assays, read-out: mean % residual activity
Procedure: as §1, §2, §3

JNK3 = JNK3 (Homo sapiens (Human), UniProt P53779); experiment: ICKP protein kinase panel screening; assay type: biochemical; conditions: duplicate assays, read-out: mean % residual activity
Procedure: as §1, §2, §3

p38g MAPK = p38g MAPK (Homo sapiens (Human), UniProt P53778); experiment: ICKP protein kinase panel screening; assay type: biochemical; conditions: duplicate assays, read-out: mean % residual activity
Procedure: as §1, §2, §3

ERK5 = ERK5 (Homo sapiens (Human), UniProt Q13164); experiment: ICKP protein kinase panel screening; assay type: biochemical; conditions: duplicate assays, read-out: mean % residual activity
Procedure: as §1, §2, §3

CDK5 = CDK5 (Homo sapiens (Human), UniProt Q00535); experiment: ICKP protein kinase panel screening; assay type: biochemical; conditions: duplicate assays, read-out: mean % residual activity
Procedure: as §1, §2, §3

ERK1 = ERK1 (Homo sapiens (Human), UniProt P27361); experiment: ICKP protein kinase panel screening; assay type: biochemical; conditions: duplicate assays, read-out: mean % residual activity
Procedure: as §1, §2, §3

JNK2 = JNK2 (Homo sapiens (Human), UniProt P45984); experiment: ICKP protein kinase panel screening; assay type: biochemical; conditions: duplicate assays, read-out: mean % residual activity
Procedure: as §1, §2, §3

p38d MAPK = p38d MAPK (Homo sapiens (Human), UniProt O15264); experiment: ICKP protein kinase panel screening; assay type: biochemical; conditions: duplicate assays, read-out: mean % residual activity
Procedure: as §1, §2, §3

[1] = system: inflammatory MA (face CFA model); experiment: Face Complete Freund's Adjuvant (CFA) model of inflammatory mechanical allodynia; assay type: in vivo; conditions: rat, intracisternal 5 μL at 100 μM
Procedure: FIG. 1 illustrates the results obtained by the intracisternal application of compounds 19-24, 66-72 and 74-82. These compounds prevent face MA in a rat model of inflammatory pain (Complete Freund's Adjuvant (CFA), n=4-6 rats for each compound). For this assay, compounds (5 μL at 100 μM) or control vehicle were intra-cisternally administred 30 min before CFA injection.
Face Complete Freund's Adjuvant (CFA) Model.
CFA (Becton Dickinson) was dissolved in saline solution containing Tween 80 and paraffin oil and conserved at 4° C. For the behavioral tests, animals were briefly (<2 min) anesthetized using a mask with 2% isoflurane and received a subcutaneous injection of 25 μL of CFA (2.5 mg/kg) solution into the right vibrissa pad using a 27 Ga needle coupled to a 25 μL Hamilton syringe, as described previously. After injection, animals were awakened from anesthesia and placed in the behavioral experimental room, followed by a 120 min mechanical testing period.
Intracisternal Injection:
For investigating the effects of synthetized compounds upon mechanical allodynia, animals were briefly (<2 min) anesthetized using a mask with 2% isoflurane and received an intracisternal injection of 5 μL of compound (100 μM) or vehicle alone (saline+1% DMSO) using a 10 μL Hamilton syringe. After recovery (<2 min), rats were placed in an observation field (0.6×0.6 m square) under red light for a period test. 6-g von Frey filament was gently applied every 15 or 30 min onto the orofacial region by a first experimenter. The behavioral responses were observed and quantified by a second experimenter (see below).
Behavioral Responses to Normally Innocuous (6-g Von Frey Filament) Mechanical Stimulation.
The behavioral responses procedure was previously developed by Vos et al. 1994. A rat's response to mechanical stimulation consisted of one or more of the following elements: (1) detection, rat turn head toward stimulus; (2) withdrawal reaction, rat pull paw away or turn head away or pull it briskly backward when stimulation is applied (a withdrawal reaction is assumed to include a detection element preceding the head withdrawal and therefore consists of two responses elements); (3) escape/attack, rats avoid further contact with the stimulus, either passively by moving their bodies away from the stimulus, or actively by attacking the tip of the […]; (4) asymmetric grooming, rats display an uninterrupted series of at least three wash strokes directed to the stimulated area.
The in vivo efficacy of some compounds was evaluated on a rat model of inflammatory MA (face CFA model; Alba-Delgado et al J. Neurosci. 2018, 38, 10489-10504) (FIG. 1). After receiving a subcutaneous injection of 25 μL of CFA (2.5 mg/kg) into the right vibrissa pad, rats develop a MA that lasts days. […] In this model of inflammatory MA, MA was suppressed in compound 69 treated rats, in comparison to animals treated with vehicle (FIG. 2A).

p38a MAPK = p38a MAPK (Homo sapiens (Human), UniProt Q16539); experiment: ICKP protein kinase panel screening; assay type: biochemical; conditions: 1 μM, duplicate assays, read-out: mean % residual activity
Procedure: (§4) FIG. 3 illustrates the human kinome. Compound 69 was evaluated at the International Center For Kinase Profiling (ICKP, Dundee, Scotland) toward a panel of 50 protein kinases that provide a representative sampling of the human kinome. The results were expressed as the mean percentage of residual activity at 10 μM concentration (duplicate assays). Small disks: ≥65%, larger disk: 19%. The black square indicates the kinome region containing protein kinases evaluated in a second screening (FIG. 4, Table 4). The tree was generated using the Kinome Render software, and the illustration reproduced courtesy of Cell Signaling Technology, Inc. (www.cellsignal.com) Chartier et al PeerJ 2013, 1:e126.
as §1, §2
(§5) Studies were undertaken to identify the possible biological target(s) of compound 69. The activation in neurons of PK such as PKCγ, ERK or p38 MAPK can contribute to pain hypersensitivity. Therefore, it was decided to screen compound 69 toward a panel of 50 PKs that provide a representative sampling of the human kinome (FIG. 3, Table 3) (Biochem. J. 2007, 408, 297-315). In this panel, p38α MAPK was identified as the privileged target, with 19% of kinase residual activity at 10 μM compound concentration.
as §3

JNK1 = JNK1 (Homo sapiens (Human), UniProt P45983); experiment: ICKP protein kinase panel screening; assay type: biochemical; conditions: 1 μM, duplicate assays, read-out: mean % residual activity
Procedure: as §4, §1, §2, §5, §3

p38α MAPK = p38α MAPK (Homo sapiens (Human), UniProt Q16539); experiment: p38 alpha IC50; assay type: biochemical
Procedure: as §5, §3

[2] = system: panel of 13 protein kinases; experiment: ICKP screening, whole panel of 13 protein kinases; assay type: biochemical, human; conditions: 1 μM
Procedure: as §1, §2, §3

p38α MAPK, sequence (Q16539 whole entry): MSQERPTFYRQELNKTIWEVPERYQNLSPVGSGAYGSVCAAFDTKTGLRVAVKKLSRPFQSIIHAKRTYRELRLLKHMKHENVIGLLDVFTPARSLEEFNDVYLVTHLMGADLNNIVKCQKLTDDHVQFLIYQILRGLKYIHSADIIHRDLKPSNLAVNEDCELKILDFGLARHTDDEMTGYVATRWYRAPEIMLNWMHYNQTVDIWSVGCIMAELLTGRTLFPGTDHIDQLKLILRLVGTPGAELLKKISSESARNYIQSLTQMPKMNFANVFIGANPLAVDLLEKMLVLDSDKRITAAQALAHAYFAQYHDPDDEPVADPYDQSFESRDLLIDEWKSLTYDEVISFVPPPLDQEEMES
JNK2, sequence (P45984 whole entry): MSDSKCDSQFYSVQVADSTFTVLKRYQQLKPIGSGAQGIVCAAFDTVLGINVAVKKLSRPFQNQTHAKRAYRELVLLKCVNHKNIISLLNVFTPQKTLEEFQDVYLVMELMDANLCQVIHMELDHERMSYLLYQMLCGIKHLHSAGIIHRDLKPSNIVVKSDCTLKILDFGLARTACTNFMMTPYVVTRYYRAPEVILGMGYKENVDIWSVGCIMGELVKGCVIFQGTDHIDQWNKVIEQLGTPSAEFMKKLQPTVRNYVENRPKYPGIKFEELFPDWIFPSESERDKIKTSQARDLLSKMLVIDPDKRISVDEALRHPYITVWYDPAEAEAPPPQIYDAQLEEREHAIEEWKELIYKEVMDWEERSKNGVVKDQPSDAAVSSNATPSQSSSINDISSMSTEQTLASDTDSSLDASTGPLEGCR
ERK2, sequence (P28482 whole entry): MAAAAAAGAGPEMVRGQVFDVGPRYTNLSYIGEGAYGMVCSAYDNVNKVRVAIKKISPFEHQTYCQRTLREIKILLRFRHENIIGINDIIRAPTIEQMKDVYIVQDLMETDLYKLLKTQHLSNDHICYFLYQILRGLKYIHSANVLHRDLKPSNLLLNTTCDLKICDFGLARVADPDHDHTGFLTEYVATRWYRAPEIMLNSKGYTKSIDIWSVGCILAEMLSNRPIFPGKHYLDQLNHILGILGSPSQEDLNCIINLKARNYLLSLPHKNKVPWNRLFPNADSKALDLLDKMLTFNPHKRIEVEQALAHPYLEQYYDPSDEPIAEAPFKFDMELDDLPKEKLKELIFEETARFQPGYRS
ERK1, sequence (P27361 whole entry): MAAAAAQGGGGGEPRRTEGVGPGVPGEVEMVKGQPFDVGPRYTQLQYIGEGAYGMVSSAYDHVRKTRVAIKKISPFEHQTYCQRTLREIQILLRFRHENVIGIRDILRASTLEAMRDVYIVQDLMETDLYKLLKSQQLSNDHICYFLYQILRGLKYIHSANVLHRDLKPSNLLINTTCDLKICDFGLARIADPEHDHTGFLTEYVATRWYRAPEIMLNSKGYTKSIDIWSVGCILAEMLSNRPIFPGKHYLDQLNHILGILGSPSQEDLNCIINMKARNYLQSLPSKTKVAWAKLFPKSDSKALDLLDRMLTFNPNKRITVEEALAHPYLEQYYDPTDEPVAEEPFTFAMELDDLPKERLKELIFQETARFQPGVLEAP
CDK5, sequence (Q00535 whole entry): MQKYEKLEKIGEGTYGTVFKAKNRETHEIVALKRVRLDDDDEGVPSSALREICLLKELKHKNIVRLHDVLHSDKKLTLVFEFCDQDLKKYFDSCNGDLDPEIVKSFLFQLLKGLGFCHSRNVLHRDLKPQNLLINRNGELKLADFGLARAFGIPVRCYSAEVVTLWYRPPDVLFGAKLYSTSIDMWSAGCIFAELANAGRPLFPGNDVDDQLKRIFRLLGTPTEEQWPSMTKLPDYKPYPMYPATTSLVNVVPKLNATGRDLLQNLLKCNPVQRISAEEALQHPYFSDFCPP
CDK5, sequence (Q15078 whole entry partner): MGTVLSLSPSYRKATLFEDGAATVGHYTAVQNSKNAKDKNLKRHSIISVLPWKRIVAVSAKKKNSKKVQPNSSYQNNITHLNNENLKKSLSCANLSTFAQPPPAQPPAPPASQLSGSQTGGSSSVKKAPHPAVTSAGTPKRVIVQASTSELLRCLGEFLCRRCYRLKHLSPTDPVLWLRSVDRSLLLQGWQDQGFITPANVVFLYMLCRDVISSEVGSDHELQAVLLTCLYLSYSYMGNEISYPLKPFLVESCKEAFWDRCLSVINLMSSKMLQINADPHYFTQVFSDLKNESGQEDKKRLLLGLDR
JNK1, sequence (P45983 whole entry): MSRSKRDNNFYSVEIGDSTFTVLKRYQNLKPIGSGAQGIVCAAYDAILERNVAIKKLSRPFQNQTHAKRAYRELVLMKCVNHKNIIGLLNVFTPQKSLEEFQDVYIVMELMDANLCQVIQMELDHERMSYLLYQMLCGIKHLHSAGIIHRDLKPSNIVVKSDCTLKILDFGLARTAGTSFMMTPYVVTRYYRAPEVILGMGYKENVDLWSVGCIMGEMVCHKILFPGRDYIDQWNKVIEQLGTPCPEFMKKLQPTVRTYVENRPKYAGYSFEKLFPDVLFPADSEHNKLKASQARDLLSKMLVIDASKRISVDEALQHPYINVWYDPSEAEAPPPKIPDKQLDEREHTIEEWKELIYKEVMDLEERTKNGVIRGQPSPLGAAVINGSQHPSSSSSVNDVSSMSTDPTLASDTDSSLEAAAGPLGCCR
p38g MAPK, sequence (P53778 whole entry): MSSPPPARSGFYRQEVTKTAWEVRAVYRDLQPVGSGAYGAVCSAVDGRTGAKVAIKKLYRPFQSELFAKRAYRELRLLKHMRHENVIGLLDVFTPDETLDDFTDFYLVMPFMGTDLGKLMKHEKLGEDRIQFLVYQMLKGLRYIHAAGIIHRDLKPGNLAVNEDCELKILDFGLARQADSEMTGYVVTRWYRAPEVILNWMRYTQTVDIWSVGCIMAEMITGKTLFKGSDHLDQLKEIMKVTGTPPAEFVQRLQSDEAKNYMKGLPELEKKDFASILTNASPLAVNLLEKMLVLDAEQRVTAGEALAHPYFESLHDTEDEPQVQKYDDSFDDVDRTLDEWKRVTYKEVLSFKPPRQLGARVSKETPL
ERK5, sequence (Q13164 whole entry): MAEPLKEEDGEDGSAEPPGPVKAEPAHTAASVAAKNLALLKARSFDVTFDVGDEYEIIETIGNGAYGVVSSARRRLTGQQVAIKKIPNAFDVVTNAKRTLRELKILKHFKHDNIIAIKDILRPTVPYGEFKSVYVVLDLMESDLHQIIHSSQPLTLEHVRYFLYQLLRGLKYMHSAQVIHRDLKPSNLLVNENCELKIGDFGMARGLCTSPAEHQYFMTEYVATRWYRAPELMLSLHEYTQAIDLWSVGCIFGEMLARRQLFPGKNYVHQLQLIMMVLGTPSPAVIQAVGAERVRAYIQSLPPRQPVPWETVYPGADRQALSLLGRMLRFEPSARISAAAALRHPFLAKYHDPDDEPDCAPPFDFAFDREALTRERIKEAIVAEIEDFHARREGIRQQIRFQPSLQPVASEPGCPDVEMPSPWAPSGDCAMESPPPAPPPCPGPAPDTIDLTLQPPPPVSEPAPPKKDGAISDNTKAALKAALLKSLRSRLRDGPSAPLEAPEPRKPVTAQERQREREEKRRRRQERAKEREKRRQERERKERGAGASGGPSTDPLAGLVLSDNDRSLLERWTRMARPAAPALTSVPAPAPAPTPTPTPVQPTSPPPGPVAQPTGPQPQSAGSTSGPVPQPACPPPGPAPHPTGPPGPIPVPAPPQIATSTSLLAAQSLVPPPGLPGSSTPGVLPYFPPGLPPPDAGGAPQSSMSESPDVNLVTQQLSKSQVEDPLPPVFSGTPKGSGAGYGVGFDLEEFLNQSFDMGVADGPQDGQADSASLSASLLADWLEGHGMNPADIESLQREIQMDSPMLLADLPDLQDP
p38b MAPK, sequence (Q15759 whole entry): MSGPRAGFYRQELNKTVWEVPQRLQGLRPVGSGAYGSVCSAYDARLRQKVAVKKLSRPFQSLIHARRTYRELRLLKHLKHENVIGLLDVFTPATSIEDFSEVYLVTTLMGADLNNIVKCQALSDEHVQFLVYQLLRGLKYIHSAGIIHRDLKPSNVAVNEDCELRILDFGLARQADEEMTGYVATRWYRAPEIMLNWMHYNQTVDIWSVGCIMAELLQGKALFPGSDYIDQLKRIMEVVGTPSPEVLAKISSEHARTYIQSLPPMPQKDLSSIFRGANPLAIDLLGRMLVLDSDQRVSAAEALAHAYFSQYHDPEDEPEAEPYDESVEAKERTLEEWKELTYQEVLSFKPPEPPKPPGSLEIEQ
ERK8, sequence (Q8TD08 whole entry): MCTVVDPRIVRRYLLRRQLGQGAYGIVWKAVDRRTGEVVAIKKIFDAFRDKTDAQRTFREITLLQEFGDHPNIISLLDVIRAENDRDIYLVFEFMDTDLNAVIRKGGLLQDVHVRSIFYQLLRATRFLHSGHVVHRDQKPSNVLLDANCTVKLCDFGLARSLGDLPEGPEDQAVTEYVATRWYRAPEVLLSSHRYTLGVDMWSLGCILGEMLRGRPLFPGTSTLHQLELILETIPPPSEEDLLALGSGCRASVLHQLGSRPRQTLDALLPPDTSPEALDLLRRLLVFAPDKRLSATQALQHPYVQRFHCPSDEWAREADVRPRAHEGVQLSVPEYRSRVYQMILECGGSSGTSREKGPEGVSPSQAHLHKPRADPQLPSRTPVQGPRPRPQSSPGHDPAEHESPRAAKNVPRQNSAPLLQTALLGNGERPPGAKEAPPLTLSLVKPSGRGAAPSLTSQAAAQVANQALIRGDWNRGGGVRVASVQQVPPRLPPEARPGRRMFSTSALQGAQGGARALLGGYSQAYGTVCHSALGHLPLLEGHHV
p38a MAPK, sequence (Q16539 whole entry): as the sequence (Q16539 whole entry) above

remaining activity at 1 µM (ERK2): 108%
remaining activity at 1 µM (CDK2-Cyclin A): 111%
remaining activity at 1 µM (p38b MAPK): 112%
remaining activity at 1 µM (JNK3): 98%
remaining activity at 1 µM (p38g MAPK): 107%
remaining activity at 1 µM (ERK5): 113%
remaining activity at 1 µM (CDK5): 101%
remaining activity at 1 µM (ERK1): 122%
remaining activity at 1 µM (JNK2): 103%
remaining activity at 1 µM (p38d MAPK): 113%
remaining activity at 1 µM (p38a MAPK): 59%
remaining activity at 1 µM (JNK1): 94%
IC50 (p38α MAPK; p38 alpha, read-out: Mean IC50): 3.03 µM
IC50 (p38α MAPK; read-out: IC50 toward p38α MAPK): 3 ± 0.1 µM
SMILES: O=c1[nH]cc(Nc2ccccc2)cc1-c1cccc2[nH]ccc12 [Compound 67, 3-(1H-Indol-4-yl)-5-(phenylamino)pyridin-2(1H)-one]
remaining activity at 1 µM (ERK8): 128%
prevention of inflammatory MA (allodynic score, 6-g von Frey filament) ([1]; 30 min before CFA): strong anti-allodynic activity; also recorded: most active
inhibition of inflammatory MA ([1]; 30 min before CFA injection): 98%
mean percentage of residual activity, other kinases of the panel (small disks) ([2]; all kinases except p38α MAPK): ≥ 90%
selectivity for p38α MAPK over the other protein kinases incl. p38 isoforms ([2]; panel of 13 kinases): same selectivity profile; also recorded: selective p38α MAPK inhibitor
